Source: patent US20250273312A1, “SYSTEM AND METHOD FOR IMMUNOSUPPRESSANT DOSAGE” (THE REGENTS OF THE UNIVERSITY OF CALIFORNIA, priority 2021, published 2025)

How the values were obtained:
[1] = Average deviation between target (predicted) and measured tacrolimus serum level for dosing Functions 0, 1, 2; set-up: species or system human; settings: unit assumed
Excerpt: Additionally, data from the clinical trial was utilized to determine the average deviations between a target (i.e., predicted) serum level and an actual (i.e., measured) serum level for the two PPM patients.
Where Function 0 is ST(DT, t)=x0(t)+x1(t)DT+x11(t)DT^2; Function 1 is [(D/S)T](N+1) day=[(D/S)T]N day; and Function 2 is [(D/S)T]next day=x0(t)+x1(t)[AST×(D/S)T]today+z11(t)[AST×(D/S)T] today. […] By incorporating the AST level the current system and methods can provide further improvement in achieving a target serum levels

[2] = human, in vivo
Excerpt: (§1) The inclusion criteria for the study was (1) the subject was undergoing primary or secondary liver or simultaneous liver and kidney transplantation; (2) the subject or a surrogate was able to provide informed consent; and (3) the subject was at least 18 years of age. […] Sixty two (62) subjects were accepted into the trial.
Each of the 62 selected subjects were randomized, with half (31) assigned to a control group and the other half (31) assigned to a phenotypic personalized medicine (PPM) group. The subjects were blinded to group assignments; the clinical team was not blinded. […] The SOC dosing utilized a combination of dose titration and a subjective determination by a clinician. The subjective determination relied on patient weight, age, muscle mass, race/ethnicity, frailty, diet, concomitant medication, and other factors to select an initial dose for the next twenty-four hours. The patient's response to this dose is then taken into consideration for determining the next day's dose recommendation. This determination was repeated each day until the patient was able to be released from the hospital.
After the third day, the Control group continued with the standard-of-care procedure while the PPM group subjects were given dosages calculated by the PPM prediction model, shown in the Function below. […]

[3] = Same clinical trial: clinical outcomes (length of stay, AST normalization, neurotoxicity); assay type: in vivo, human
Excerpt: as §1
Each of the 62 selected subjects were randomized, with half (31) assigned to a control group and the other half (31) assigned to a phenotypic personalized medicine (PPM) group. The subjects were blinded to group assignments; the clinical team was not blinded. The patients in the PPM group were given tacrolimus dosages based on the present dosage calculation system and patients of the Control group were given tacrolimus dosages based on standard-of-care (SOC) dosing. The SOC dosing utilized a combination of dose titration and a subjective determination by a clinician. The subjective determination relied on patient weight, age, muscle mass, race/ethnicity, frailty, diet, concomitant medication, and other factors to select an initial dose for the next twenty-four hours. The patient's response to this dose is then taken into consideration for determining the next day's dose recommendation. This determination was repeated each day until the patient was able to be released from the hospital.
Tacrolimus dosage was discontinued for one patient in each of the PPM group and the Control group. […] As this would affect dosing accuracy and the study outcomes, this patient was excluded from analysis. One patient assigned to the Control group refused multiple tacrolimus doses in the post-operative period and was therefore excluded from analysis. The remaining 56 (29 Control group and 27 PPM group) patients completed the study and were discharged from the hospital after transplantation.
Following liver transplantation, all study patients were started on standard-of-care medication regimen: a three-drug combination of tacrolimus, a corticosteroid, and mycophenolate. Blood tacrolimus trough levels were measured daily in the morning until patient discharge. […] After the third day, the Control group continued with the standard-of-care procedure while the PPM group subjects were given dosages calculated by the PPM prediction model, shown in the Function below.
The primary outcome measure was percent days with large (>2 ng/ml) deviations from target range. Secondary outcomes included percent days outside-of-target range, ratio of area-under-the-curve outside-of-target-range to total days, graft rejection, graft failure, death, infections, length of stay, nephrotoxicity episodes, or neurotoxicity episodes. Comparisons between the two groups were performed using either the two-tailed Welch's t-test or Student's t-test. For nonparametric (non-normal) distributions, a two-tailed Levene's test was used to compare variances and a two-tailed Wilcoxon Rank Sum test was used to compare medians. Logistic regression was used to dichotomize the length of stay after transplant and the percent days out of target range for comparison. Statistical analyses were performed on JMP Pro 16.1.0.

Average Deviation from Target Serum Level ([1]; Function 0, first row of Table 5 (one of the two PPM patients)): 2.9 ng/mL | Average Deviation from Target Serum Level ([1]; Function 0, second row of Table 5 (one of the two PPM patients)): 1.6 ng/mL | Average Deviation from Target Serum Level ([1]; Function 1, first row of Table 5): 2 ng/mL | Average Deviation from Target Serum Level ([1]; Function 1, second row of Table 5): 1.2 ng/mL | Average Deviation from Target Serum Level ([1]; Function 2, first row of Table 5): 1.4 ng/mL | Average Deviation from Target Serum Level ([1]; Function 2, second row of Table 5): 0.6 ng/mL | decrease in the percentage of days with a large deviation from the target trough drug level [2]: 37% | reduction of the mean AUC outside of target range [2]: 30%
SMILES: C=CC[C@@H]1/C=C(\C)C[C@H](C)C[C@H](OC)[C@H]2O[C@@](O)(C(=O)C(=O)N3CCCC[C@H]3C(=O)O[C@H](/C(C)=C/[C@@H]3CC[C@@H](O)[C@H](OC)C3)[C@H](C)[C@@H](O)CC1=O)[C@H](C)C[C@@H]2OC [tacrolimus]
days after liver transplant until release from hospital ([3]; Control Patient, conventional titration): 19 days | average hospital stay ([3]; Control group): 15.87 days | day by which 90% of the patients were discharged ([3]; Control group): 25 days | share of group with post-transplant length of stay two weeks or more ([3]; Control group): 65.5% | median days to normalize AST levels (DAST) ([3]; Control group (Q1-Q3 6.25-11.75)): 8.5 days | median length-of-stay (LOS) ([3]; Control group (Q1-Q3 10.5-20.5)): 15 days | average hospital stay ([3]; Control group, two patients with the longest stay removed): 14.36 days | days after liver transplant until release from hospital ([3]; First PPM Patient): 12 days | average hospital stay ([3]; PPM group): 10.42 days | day by which 90% of the patients were discharged ([3]; PPM group): 15 days | share of group with post-transplant length of stay two weeks or more ([3]; PPM group (5/27)): 18.5% | median days to normalize AST levels (DAST) ([3]; PPM group (Q1-Q3 4-8)): 6 days | median length-of-stay (LOS) ([3]; PPM group (Q1-Q3 8-12)): 10 days | reduction in the post-transplant length of stay ([3]; PPM group versus Control group): more than 30% | average hospital stay ([3]; PPM group, two patients with the longest stay removed): 8 days | day of release from hospital ([3]; Second PPM Patient): 11 days | neurotoxicity leading to discontinuation of tacrolimus ([3]; one patient in each of the PPM group and the Control group, evidenced by brain imaging): neurotoxicity within the first week after transplant that was deemed not dose related
